Bounds are passed on as bounds.

The first assay has as its system A549. Nature of the assay: Inhibitory concentration of compound against proliferation of lung carcinoma A549 cell line. Type of assay: functional, cell-based. As to conditions: Homo sapiens.
For orientation: IC50 means the concentration needed to halve the response being measured. Read a high IC50 as weaker potency in that assay. Compound `CCN(CC)CCNCc1cc2c(c3oc4ccccc4c(=O)c13)C=CC(C)(C)O2.O=C(O)/C=C/C(=O)O` showed an IC50 of 11 µM.
Still for that read-out and setting: under `CCN(CC)CCNc1cc2c(c3oc4ccccc4c(=O)c13)C=CC(C)(C)O2` stands greater than 100 µM.
On the same count and under the same terms, under `CN(C)CCNC(=O)c1cc2c(c3oc4ccccc4c(=O)c13)C=CC(C)(C)O2` stands 90 µM; under `CCN(CC)CCNC(=O)c1cc2c(c3oc4ccccc4c(=O)c13)C=CC(C)(C)O2`, 60 µM; under `CCN(CC)CCNC(=O)c1c2c(cc3oc4ccccc4c(=O)c13)OC(C)(C)C=C2`, 51 µM.
The same measure, in the same setting: under `CN(C)CCNC(=O)c1c2c(cc3oc4ccccc4c(=O)c13)OC(C)(C)C=C2` stands 57 µM; under `CN(C)CCNc1c2c(cc3oc4ccccc4c(=O)c13)OC(C)(C)C=C2.Cl`, 30 µM.
Consider `CN(C)CCNc1cc2c(c3oc4ccccc4c(=O)c13)C=CC(C)(C)O2`, for which the 50% inhibitory concentration (IC50) stood at 23 µM.
Same read-out and setting: the result for `CCN(CC)CCNc1c2c(cc3oc4ccccc4c(=O)c13)OC(C)(C)C=C2.Cl` reads 25 µM; that for `CN(C)CCNCc1cc2c(c3oc4ccccc4c(=O)c13)C=CC(C)(C)O2`, 44 µM.
Still for that read-out and setting: the result for `CN(C)CCNCc1c2c(cc3oc4ccccc4c(=O)c13)OC(C)(C)C=C2` reads 25 µM.
Still for that read-out and setting: the result for `CCN(CC)CCNCc1c2c(cc3oc4ccccc4c(=O)c13)OC(C)(C)C=C2.Cl` reads 8 µM; that for `COc1cc2c(c3c1c(=O)c1ccccc1n3C)C=CC(C)(C)O2` [ACRONINE], greater than 100 µM.
As for `O=C1c2c(O)ccc(O)c2C(=O)c2c(NCCNCCO)ccc(NCCNCCO)c21` [MITOXANTRONE], it took 0.3 µM to reach half-maximal inhibition (IC50).

In a further assay the test system is HT-29. The experiment in a line: Cell-cycle-phase distribution of HT-29 cell-cultures exposed to 10 uM concentration of compound for 22 hr in S phase. Type of assay: functional, Homo sapiens.
Conditions: not given
Compound `CCN(CC)CCNCc1cc2c(c3oc4ccccc4c(=O)c13)C=CC(C)(C)O2.O=C(O)/C=C/C(=O)O` yielded an Activity of 12.53.
The same measure, in the same setting: under `CCN(CC)CCNC(=O)c1c2c(cc3oc4ccccc4c(=O)c13)OC(C)(C)C=C2` stands 1.06; under `CCN(CC)CCNCc1c2c(cc3oc4ccccc4c(=O)c13)OC(C)(C)C=C2.Cl`, 21.22.

A further assay deals with HT-29. The experiment in a line: Cell-cycle-phase distribution of HT-29 cell-cultures exposed to 10 uM concentration of compound for 22 hr in G0/G1 phase. Type of assay: functional, Homo sapiens.
Conditions: not given
As to `CCN(CC)CCNCc1cc2c(c3oc4ccccc4c(=O)c13)C=CC(C)(C)O2.O=C(O)/C=C/C(=O)O`, the Activity was 79.7.
The same measure, in the same setting: under `CCN(CC)CCNC(=O)c1c2c(cc3oc4ccccc4c(=O)c13)OC(C)(C)C=C2` stands 61.24.
On the same count and under the same terms, under `CCN(CC)CCNCc1c2c(cc3oc4ccccc4c(=O)c13)OC(C)(C)C=C2.Cl` stands 69.92.

Another assay relates to HT-29. The experiment in a line: Inhibitory concentration of compound against proliferation of colon carcinoma HT-29 cell line. As to conditions: Homo sapiens. The class given is functional, cell-based.
As to `CCN(CC)CCNCc1cc2c(c3oc4ccccc4c(=O)c13)C=CC(C)(C)O2.O=C(O)/C=C/C(=O)O`, the IC50 is 1.7 µM.
The same measure, in the same setting: under `CCN(CC)CCNc1cc2c(c3oc4ccccc4c(=O)c13)C=CC(C)(C)O2` stands 42 µM; under `CN(C)CCNC(=O)c1cc2c(c3oc4ccccc4c(=O)c13)C=CC(C)(C)O2`, 12 µM.
Consider `CCN(CC)CCNC(=O)c1cc2c(c3oc4ccccc4c(=O)c13)C=CC(C)(C)O2`, for which the concentration for half-maximal inhibition (IC50) was 30 µM.
On the same count and under the same terms, under `CCN(CC)CCNC(=O)c1c2c(cc3oc4ccccc4c(=O)c13)OC(C)(C)C=C2` stands 40 µM.
Same read-out and setting: under `CN(C)CCNC(=O)c1c2c(cc3oc4ccccc4c(=O)c13)OC(C)(C)C=C2` stands 60 µM; under `CN(C)CCNc1c2c(cc3oc4ccccc4c(=O)c13)OC(C)(C)C=C2.Cl`, 23 µM; under `CN(C)CCNc1cc2c(c3oc4ccccc4c(=O)c13)C=CC(C)(C)O2`, 8 µM.
`CCN(CC)CCNc1c2c(cc3oc4ccccc4c(=O)c13)OC(C)(C)C=C2.Cl` returned an IC50 of 8 µM.
The same measure, in the same setting: the result for `CN(C)CCNCc1cc2c(c3oc4ccccc4c(=O)c13)C=CC(C)(C)O2` reads 8.8 µM.
Still for that read-out and setting: under `CN(C)CCNCc1c2c(cc3oc4ccccc4c(=O)c13)OC(C)(C)C=C2` stands 6.4 µM; under `CCN(CC)CCNCc1c2c(cc3oc4ccccc4c(=O)c13)OC(C)(C)C=C2.Cl`, 2 µM.
Same read-out and setting: the result for `COc1cc2c(c3c1c(=O)c1ccccc1n3C)C=CC(C)(C)O2` [ACRONINE] reads greater than 100 µM.
With `O=C1c2c(O)ccc(O)c2C(=O)c2c(NCCNCCO)ccc(NCCNCCO)c21` [MITOXANTRONE], the midpoint of inhibition, the IC50, lay at 8 µM.

The subject of another assay is L1210. The experiment in a line: Inhibitory concentration of compound against proliferation of murine leukemia L1210 cell line. The class given is functional, cell-based. The settings on record: Mus musculus.
On to `CCN(CC)CCNCc1cc2c(c3oc4ccccc4c(=O)c13)C=CC(C)(C)O2.O=C(O)/C=C/C(=O)O`, for which half-maximal inhibition (IC50) required 2 µM.
Still for that read-out and setting: under `CCN(CC)CCNc1cc2c(c3oc4ccccc4c(=O)c13)C=CC(C)(C)O2` stands 8.4 µM; under `CN(C)CCNC(=O)c1cc2c(c3oc4ccccc4c(=O)c13)C=CC(C)(C)O2`, 16 µM.
The compound `CCN(CC)CCNC(=O)c1cc2c(c3oc4ccccc4c(=O)c13)C=CC(C)(C)O2` had a half-maximal inhibitory concentration (IC50) of 10 µM.
Still for that read-out and setting: under `CCN(CC)CCNC(=O)c1c2c(cc3oc4ccccc4c(=O)c13)OC(C)(C)C=C2` stands 9 µM; under `CN(C)CCNC(=O)c1c2c(cc3oc4ccccc4c(=O)c13)OC(C)(C)C=C2`, 12 µM.
Compound `CN(C)CCNc1c2c(cc3oc4ccccc4c(=O)c13)OC(C)(C)C=C2.Cl` had an IC50 of 5.8 µM. This IC50 lies about 2.1-fold lower than the previous one.
On to `CN(C)CCNc1cc2c(c3oc4ccccc4c(=O)c13)C=CC(C)(C)O2`, for which the half-maximal inhibitory concentration (IC50) came to 7.1 µM.
Same read-out and setting: the result for `CCN(CC)CCNc1c2c(cc3oc4ccccc4c(=O)c13)OC(C)(C)C=C2.Cl` reads 5.1 µM; that for `CN(C)CCNCc1cc2c(c3oc4ccccc4c(=O)c13)C=CC(C)(C)O2`, 4.1 µM; that for `CN(C)CCNCc1c2c(cc3oc4ccccc4c(=O)c13)OC(C)(C)C=C2`, 4 µM.
Still for that read-out and setting: the result for `CCN(CC)CCNCc1c2c(cc3oc4ccccc4c(=O)c13)OC(C)(C)C=C2.Cl` reads 2 µM; that for `COc1cc2c(c3c1c(=O)c1ccccc1n3C)C=CC(C)(C)O2` [ACRONINE], 27 µM.
With `O=C1c2c(O)ccc(O)c2C(=O)c2c(NCCNCCO)ccc(NCCNCCO)c21` [MITOXANTRONE], the midpoint of inhibition, the IC50, lay at 0.04 µM. This IC50 lies about 680-fold lower than the previous one.

The subject of another assay is HT-29. The experiment in a line: Cell-cycle-phase distribution of HT-29 cell-cultures exposed to 10 uM concentration of compound for 22 hr in G2/M phase. The class given is functional, Homo sapiens.
Conditions: not given
For the compound `CCN(CC)CCNCc1cc2c(c3oc4ccccc4c(=O)c13)C=CC(C)(C)O2.O=C(O)/C=C/C(=O)O`, the Activity turned out to be 7.77.
As for `CCN(CC)CCNC(=O)c1c2c(cc3oc4ccccc4c(=O)c13)OC(C)(C)C=C2`, the Activity is reported as 37.7.
The same measure, in the same setting: under `CCN(CC)CCNCc1c2c(cc3oc4ccccc4c(=O)c13)OC(C)(C)C=C2.Cl` stands 8.86.

The next assay deals with Calf thymus DNA. Nature of the assay: In vitro calf thymus DNA binding affinity by ethidium bromide displacement. The class given is nucleic-acid assay, Bos taurus.
Conditions: not given
In general, EC50 refers to the midpoint of the concentration-response curve. Take `CCN(CC)CCNCc1cc2c(c3oc4ccccc4c(=O)c13)C=CC(C)(C)O2.O=C(O)/C=C/C(=O)O`: the response was half-maximal at 42 µM (EC50). In other words, the double-digit micromolar range.
Same read-out and setting: the result for `CCN(CC)CCNc1cc2c(c3oc4ccccc4c(=O)c13)C=CC(C)(C)O2` reads 88 µM; that for `CN(C)CCNC(=O)c1cc2c(c3oc4ccccc4c(=O)c13)C=CC(C)(C)O2`, 197 µM; that for `CCN(CC)CCNC(=O)c1cc2c(c3oc4ccccc4c(=O)c13)C=CC(C)(C)O2`, 150 µM.
`CCN(CC)CCNC(=O)c1c2c(cc3oc4ccccc4c(=O)c13)OC(C)(C)C=C2` returned an EC50 of 100 µM.
The same measure, in the same setting: under `CN(C)CCNC(=O)c1c2c(cc3oc4ccccc4c(=O)c13)OC(C)(C)C=C2` stands 107 µM; under `CN(C)CCNc1cc2c(c3oc4ccccc4c(=O)c13)C=CC(C)(C)O2`, 89 µM; under `CN(C)CCNCc1cc2c(c3oc4ccccc4c(=O)c13)C=CC(C)(C)O2`, 74 µM.
Still for that read-out and setting: under `CN(C)CCNCc1c2c(cc3oc4ccccc4c(=O)c13)OC(C)(C)C=C2` stands 39 µM; under `CCN(CC)CCNCc1c2c(cc3oc4ccccc4c(=O)c13)OC(C)(C)C=C2.Cl`, 30 µM; under `COc1cc2c(c3c1c(=O)c1ccccc1n3C)C=CC(C)(C)O2` [ACRONINE], 82 µM.
On the same count and under the same terms, under `O=C1c2c(O)ccc(O)c2C(=O)c2c(NCCNCCO)ccc(NCCNCCO)c21` [MITOXANTRONE] stands 0.4 µM.

Another assay concerns Nucleic Acid. Nature of the assay: In vitro DNA binding affinity for calf thymus DNA was determined using ethidium bromide displacement assay; Not detected. The class given is nucleic-acid assay, Bos taurus.
Conditions: not given
Regarding `CN(C)CCNc1c2c(cc3oc4ccccc4c(=O)c13)OC(C)(C)C=C2.Cl`, the EC50 result is “Not detected”.
Still for that read-out and setting: under `CCN(CC)CCNc1c2c(cc3oc4ccccc4c(=O)c13)OC(C)(C)C=C2.Cl` stands “Not detected”.
